The source made the active and inactive calls.
Legend:
Cytochrome P450 2C19 = Cytochrome P450 2C19 (Homo sapiens, UniProt P33261); assay: Cytochrome panel assay with activity outcomes. Panel member name: p450-cyp2c19 Compounds with AC50 equal or less than 10 uM are considered active; assay type: functional
Cytochrome P450 1A2 = target: T1, Cytochrome P450 1A2 (Homo sapiens, UniProt P05177);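 note: PubChem cytochrome P450 panel assay, CYP1A2 panel member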
T1 sequence (P05177 whole entry): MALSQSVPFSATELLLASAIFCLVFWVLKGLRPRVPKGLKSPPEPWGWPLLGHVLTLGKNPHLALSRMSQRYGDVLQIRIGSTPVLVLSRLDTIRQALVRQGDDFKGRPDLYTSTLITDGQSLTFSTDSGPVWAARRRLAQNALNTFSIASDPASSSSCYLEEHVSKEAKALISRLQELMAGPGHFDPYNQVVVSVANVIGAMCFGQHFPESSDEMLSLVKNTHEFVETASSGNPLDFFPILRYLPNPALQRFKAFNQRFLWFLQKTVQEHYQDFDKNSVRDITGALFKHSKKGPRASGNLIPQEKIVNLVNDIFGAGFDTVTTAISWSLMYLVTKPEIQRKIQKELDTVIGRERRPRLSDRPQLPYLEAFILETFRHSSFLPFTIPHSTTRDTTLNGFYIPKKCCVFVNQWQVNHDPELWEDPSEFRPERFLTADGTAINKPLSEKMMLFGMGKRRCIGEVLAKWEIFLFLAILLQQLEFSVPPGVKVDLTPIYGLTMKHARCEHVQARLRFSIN

Cytochrome P450 3A4 = Cytochrome P450 3A4 (Homo sapiens, UniProt P08684);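 note: CYP3A4 tested as one member of a cytochrome P450 panel screen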
Chain of Cytochrome P450 3A4 (P08684 whole entry): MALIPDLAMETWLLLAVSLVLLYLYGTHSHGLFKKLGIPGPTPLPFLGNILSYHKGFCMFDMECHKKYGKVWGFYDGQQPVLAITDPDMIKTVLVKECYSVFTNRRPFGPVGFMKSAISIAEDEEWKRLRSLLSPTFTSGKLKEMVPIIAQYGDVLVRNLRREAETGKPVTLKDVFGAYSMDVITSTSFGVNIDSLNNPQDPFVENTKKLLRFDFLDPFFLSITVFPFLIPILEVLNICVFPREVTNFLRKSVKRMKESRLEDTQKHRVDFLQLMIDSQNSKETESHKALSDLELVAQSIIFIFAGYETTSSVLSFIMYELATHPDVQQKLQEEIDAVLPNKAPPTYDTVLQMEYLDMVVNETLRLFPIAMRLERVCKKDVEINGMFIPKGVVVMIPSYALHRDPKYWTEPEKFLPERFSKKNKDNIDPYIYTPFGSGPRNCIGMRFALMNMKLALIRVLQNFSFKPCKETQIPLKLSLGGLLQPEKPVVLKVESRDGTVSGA

Cytochrome P450 2C9 = Cytochrome P450 2C9 (Homo sapiens, UniProt P11712)
Chain of Cytochrome P450 2C9 (P11712 whole entry): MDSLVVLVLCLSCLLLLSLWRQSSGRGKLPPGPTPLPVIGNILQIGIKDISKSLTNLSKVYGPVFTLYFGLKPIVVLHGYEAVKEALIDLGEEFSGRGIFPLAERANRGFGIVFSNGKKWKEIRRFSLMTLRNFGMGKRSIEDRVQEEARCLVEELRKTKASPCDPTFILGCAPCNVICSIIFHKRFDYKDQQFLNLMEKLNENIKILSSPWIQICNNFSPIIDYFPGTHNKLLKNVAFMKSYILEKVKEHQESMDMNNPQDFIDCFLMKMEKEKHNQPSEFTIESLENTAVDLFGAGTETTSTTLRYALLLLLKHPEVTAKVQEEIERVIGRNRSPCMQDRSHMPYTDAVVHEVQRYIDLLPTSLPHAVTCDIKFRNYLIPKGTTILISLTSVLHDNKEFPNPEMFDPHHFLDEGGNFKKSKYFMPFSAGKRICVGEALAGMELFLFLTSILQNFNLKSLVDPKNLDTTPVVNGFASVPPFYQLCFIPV

[1] = cytotoxicity toward NIH3T3 fibroblasts, dose response, counter-screen, cell-based, ATP luminescence, mouse fibroblasts (AID 2010); assay type: functional;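 note: cells exposed to compound for about 90 hours before reading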
[2] = inhibitors of intracellular T. cruzi replication, confirmation, NIH3T3 host cells, beta-gal luminescence (AID 2044); assay type: functional, cell-based;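 note: intracellular parasites grown in NIH/3T3 mouse fibroblasts as host cells; luminescent beta-galactosidase reporter signal from transgenic T. cruzi replicating inside host cells; inhibitors lower the luminescence signal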

Chain of Cytochrome P450 2C19 (P33261 whole entry): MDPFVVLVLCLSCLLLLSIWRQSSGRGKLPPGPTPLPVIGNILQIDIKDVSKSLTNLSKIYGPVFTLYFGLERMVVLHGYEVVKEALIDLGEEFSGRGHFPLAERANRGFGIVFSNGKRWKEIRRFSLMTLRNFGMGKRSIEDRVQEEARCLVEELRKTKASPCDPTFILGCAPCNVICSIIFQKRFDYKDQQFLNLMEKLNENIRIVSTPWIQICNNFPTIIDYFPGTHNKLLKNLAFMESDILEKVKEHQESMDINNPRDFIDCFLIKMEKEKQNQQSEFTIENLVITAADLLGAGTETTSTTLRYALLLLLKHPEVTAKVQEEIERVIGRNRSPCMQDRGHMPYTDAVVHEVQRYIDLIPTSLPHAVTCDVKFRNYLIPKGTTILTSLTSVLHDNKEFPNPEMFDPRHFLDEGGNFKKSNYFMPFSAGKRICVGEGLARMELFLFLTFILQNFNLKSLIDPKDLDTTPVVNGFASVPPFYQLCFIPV

For `CO[C@@H]1COC(=O)[C@@H](CCSC)NC(=O)C/C=C\[C@@H](C)COC(=O)[C@H](C)NC(=O)C/C=C\[C@H]1C`, the AC50 (Cytochrome P450 2C19) was “inconclusive”.

For `C[C@@H](C(=O)NCCc1c[nH]c2ccccc12)[C@H]1C[C@]1(C)[C@H](NC(=O)OCc1ccccc1)c1ccccc1`, the AC50 (Cytochrome P450 1A2) was 15.8 µM (inconclusive).

In the case of `COc1ccc(-n2c(=O)c(-c3ccc(F)c(F)c3)nc3cncnc32)cc1`, the AC50 (Cytochrome P450 3A4) is reported as 12.6 µM (inconclusive) and the AC50 (Cytochrome P450 1A2) is reported as 2.51 µM (inconclusive).

In the case of `Cc1cccc(-c2noc(-c3cc4ccccc4oc3=O)n2)c1`, the AC50 (Cytochrome P450 2C19; read-out: AC50) is reported as 0.562 µM (inconclusive).

For `COc1ncc2nc(-c3ccc(Cl)cc3)c(=O)n(C[C@H]3CCCO3)c2n1`, the AC50 (Cytochrome P450 2C9) was 25.1 µM (inconclusive).

In the case of `COc1cccc(N2C(C(C)=O)=NN(c3ccccc3)C2c2ccc(N3CCOCC3)cc2)c1` (configuration not stated), the EC50 [1] is reported as > 30 µM (not active) and the EC50 [2] is reported as 1.49 µM (active).

In the case of `CCOc1c(OC(C)=O)ccc(/C=C2\N=C(SCC)SC2=O)c1[N+](=O)[O-]`, the AC50 (Cytochrome P450 3A4) is reported as 39.8 µM (inconclusive).

With `COc1cc(OC)nc(NC(C)=O)n1` the AC50 (Cytochrome P450 1A2) was 28.2 µM (inconclusive).

With `Cc1ccc2ccccc2c1CSc1nc(N)nc2c1ncn2CC(C)C` the AC50 (Cytochrome P450 2C9) was 7.94 µM (inconclusive).

For `Cc1nnc(O)nc1NCc1ccccc1Cl`, the AC50 (Cytochrome P450 3A4) was 39.8 µM (inconclusive).

In the case of `Clc1ccc(SCc2cc(-c3ccccc3)no2)cc1`, the AC50 (Cytochrome P450 2C9) is reported as 4.47 µM (inconclusive).

With `Cc1ccccc1NC(=S)NC(=O)c1cc(-c2ccccc2)nc2ccccc12` the AC50 (Cytochrome P450 3A4) was 3.16 µM (inconclusive).

With `Cc1ccc(C)c(Oc2ccc(S(=O)(=O)N3CCN(C)CC3)cn2)c1` the EC50 [1] was > 60 µM (not active) and the EC50 [2] was 1.14 µM (active).

With `COCCNc1ccnc(-c2ccccc2C)n1` the AC50 (Cytochrome P450 2C19; read-out: AC50) was 15.8 µM (inconclusive).

In the case of `CCCC[C@]1(C2CCCC2)Cc2cc(OCC(=O)O)c(Cl)c(Cl)c2C1=O`, the AC50 (Cytochrome P450 3A4) is reported as 10 µM (inconclusive).

With `CC(C)c1ccccc1[S+]([O-])c1ccccc1C(C)(C)O` (configuration not stated) the AC50 (Cytochrome P450 2C19; read-out: AC50) was 3.16 µM (inconclusive) and the AC50 (Cytochrome P450 3A4) was 3.98 µM (inconclusive).

In the case of `COC(=O)C1=CN(c2cc(C)cc(C)c2)C=C(C(=O)OC)C1c1cccc(F)c1`, the EC50 [1] is reported as > 60 µM (not active) and the EC50 [2] is reported as 3.09 µM (active).

For `CCOC(=O)c1c(NC(=O)COC(=O)c2ccccc2NC)sc(C(=O)N(C)C)c1C`, the EC50 [1] was > 60 µM (not active) and the EC50 [2] was 0.75 µM (active).

In the case of `CCOC(=O)c1ccc(Nc2nc(C(=O)OCC)nc3ccccc23)cc1`, the AC50 (Cytochrome P450 2C9) is reported as 3.55 µM (inconclusive) and the AC50 (Cytochrome P450 3A4) is reported as 35.5 µM (inconclusive).

With `COc1ccc(C(=O)NCS(=O)(=O)c2ccc(C)cc2)cc1` the AC50 (Cytochrome P450 1A2) was 15.8 µM (inconclusive).

For `O=C(Nc1ccc(F)cc1)NC1CCN(Cc2ccccc2)CC1`, the EC50 [1] was > 60 µM (not active) and the EC50 [2] was 0.476 µM (active).

For `COC(=O)[C@@H]1CC[C@H](C)[C@@H](c2ccc(C)cc2)N1C(=O)c1ccc(/C=N\OC[C@@H](O)[C@H]2O[C@H]3OC(C)(C)O[C@H]3[C@@H]2O)cc1`, the AC50 (Cytochrome P450 3A4) was 6.31 µM (inconclusive).

For `CCN1CCN(c2nc(-c3ccccn3)nc3ccccc23)CC1`, the AC50 (Cytochrome P450 2C19; read-out: AC50) was 39.8 µM (inconclusive).

With `Cc1noc(NC(=O)Nc2ccccc2F)c1C#N` the AC50 (Cytochrome P450 1A2) was 0.794 µM (inconclusive).

In the case of `O=C(c1cc(COc2ccc(F)cc2Cl)on1)N(Cc1ccncc1)CC1CCCO1` (configuration not stated), the EC50 [1] is reported as > 60 µM (not active) and the EC50 [2] is reported as 0.956 µM (active).

In the case of `Cn1c(=O)c2c(nc(N/N=C\c3ccccc3C(=O)O)n2C)n(C)c1=O`, the AC50 (Cytochrome P450 2C19) is reported as “inconclusive”.

In the case of `CCCC1(C(=O)OC)C=C2C(=C(C(C)C)C(=O)C2C)CN1` (configuration not stated), the AC50 (Cytochrome P450 2C9) is reported as 20 µM (inconclusive) and the AC50 (Cytochrome P450 3A4) is reported as 12.6 µM (inconclusive).

For `CCCC(C)C(=O)Nc1ncc(S(=O)(=O)c2ccc([N+](=O)[O-])cc2)s1` (configuration not stated), the EC50 [1] was > 60 µM (not active) and the EC50 [2] was 2.25 µM (active).

For `O=C(CSc1ncnc2c1cnn2CCc1ccccc1)Nc1ccc(F)cc1`, the AC50 (Cytochrome P450 3A4) was 1.41 µM (inconclusive).

In the case of `CCOc1ccc2nc(NC(=O)C3CCN(c4cnccn4)CC3)sc2c1`, the EC50 [1] is reported as > 60 µM (not active) and the EC50 [2] is reported as 2.48 µM (active).

In the case of `C[C@@H](c1ccccc1)N1C(=O)[C@H]2[C@H]3[C@H](O)[C@H](O)C/C(=N/OCc4ccccc4)[C@@H]3CC[C@@H]2C1=O`, the AC50 (Cytochrome P450 3A4) is reported as 5.01 µM (inconclusive).

In the case of `CCN(C(S)=Nc1ccccc1F)C1CCCCC1`, the AC50 (Cytochrome P450 3A4) is reported as 14.1 µM (inconclusive).

In the case of `CN(C)C(=O)CSC1c2ccccc2C(=O)N1c1ccccc1` (configuration not stated), the AC50 (Cytochrome P450 2C9) is reported as 35.5 µM (inconclusive) and the AC50 (Cytochrome P450 3A4) is reported as 15.8 µM (inconclusive).

With `CCC(C(=O)N1CCOCC1)n1c(C(=O)OC)cc2occc21` (configuration not stated) the AC50 (Cytochrome P450 2C9) was 10 µM (inconclusive) and the AC50 (Cytochrome P450 3A4) was 14.1 µM (inconclusive).

In the case of `O=C(OCc1ccccc1)/C(=C/c1ccc(Cl)cc1)NC(=O)c1ccccc1Cl`, the AC50 (Cytochrome P450 2C19; read-out: AC50) is reported as 0.316 µM (inconclusive) and the AC50 (Cytochrome P450 2C9) is reported as 1.58 µM (inconclusive).

In the case of `COc1ccc(-c2nc3cnc(N4CCOCC4)nc3n(-c3ccc(OC)cc3)c2=O)cc1`, the AC50 (Cytochrome P450 1A2) is reported as 10 µM (inconclusive).

With `N#Cc1cccc(-c2nc3cnc(N4CCOCC4)nc3n(C3CC3)c2=O)c1` the AC50 (Cytochrome P450 3A4) was 39.8 µM (inconclusive).

For `Oc1ccc(-c2nccc(-c3ccc(Cl)cc3Cl)n2)cc1`, the EC50 [1] was > 60 µM (not active) and the EC50 [2] was 1.62 µM (active).

With `CN1CCN(S(=O)(=O)c2cnccc2N2CCN(c3cccc(Cl)c3)CC2)CC1` the EC50 [1] was > 60 µM (inconclusive) and the EC50 [2] was 1 µM (active).

For `CCN(CC1CCCN(CCc2cccc(OC)c2)C1)C(=O)c1ccc(COC)o1` (configuration not stated), the EC50 [1] was 30.9 µM (active) and the EC50 [2] was 0.445 µM (active).

With `COc1cccc(C2=NOC(C(=O)NCc3ccccc3)C2)c1` (configuration not stated) the AC50 (Cytochrome P450 3A4) was 25.1 µM (inconclusive).

For `COc1ccc(COC(=O)N/N=C2/C[C@@H](O)[C@@H](O)[C@@H]3[C@@H]4C(=O)N([C@@H](C)c5ccccc5)C(=O)[C@H]4CC[C@H]23)cc1`, the AC50 (Cytochrome P450 3A4) was 3.98 µM (inconclusive).

For `COCCn1c(=O)c(-c2cc(F)cc(F)c2)nc2cnc(N3CCNCC3)nc21`, the AC50 (Cytochrome P450 3A4) was 20 µM (inconclusive).

With `CC(C)CCNC(=O)C(c1cccnc1)N(Cc1ccccc1)C(=O)Cn1nnc2ccccc21` (configuration not stated) the EC50 [1] was > 30 µM (not active) and the EC50 [2] was 0.959 µM (active).

For `CCN(CC)C(=O)CSc1nc(O)cc(=O)n1CC`, the AC50 (Cytochrome P450 3A4) was 14.1 µM (inconclusive).

For `COc1ccc2[nH]cc(CCNc3cc(-c4ccc(C(=O)N(C)C)cc4)ncn3)c2c1`, the AC50 (Cytochrome P450 2C19; read-out: AC50) was 39.8 µM (inconclusive).

In the case of `CCN(CC)C(=O)c1sc2[nH]c(=S)n(-c3ccccc3)c(=O)c2c1C`, the AC50 (Cytochrome P450 2C19) is reported as “inconclusive” and the AC50 (Cytochrome P450 2C9) is reported as 8.91 µM (inconclusive).

In the case of `c1ccc(NN(Cc2cnccn2)c2ccccc2)cc1`, the AC50 (Cytochrome P450 3A4) is reported as 1 µM (inconclusive).

In the case of `CO[C@@H]1COC(=O)[C@H]2CCCN2C(=O)[C@@H](C)COC(=O)[C@H](COCc2ccccc2)NC(=O)C/C=C\[C@H]1C`, the AC50 (Cytochrome P450 3A4) is reported as 3.98 µM (inconclusive).

With `COC(=O)[C@@H]1CC[C@H](C)[C@@H](c2ccc(C)cc2)N1C(=O)c1ccc(/C=N\OC[C@@H]2O[C@H](c3ccccc3)C=C[C@@H]2Oc2ccc(OC)cc2)cc1` the AC50 (Cytochrome P450 3A4) was 3.16 µM (inconclusive).

For `CCC(=O)Nc1ccc(NC(=O)CSc2nnnn2-c2cccnc2)cc1C`, the AC50 (Cytochrome P450 2C19) was “inconclusive”.

With `CSC(=N)N/N=C/c1ccc([N+](=O)[O-])cc1` the AC50 (Cytochrome P450 2C9) was 10 µM (inconclusive).

With `C=C(C)[C@H]1CC=C(C)/C(=N/NC(=O)CNc2ccccc2OC)C1` the AC50 (Cytochrome P450 2C19; read-out: AC50) was 11.2 µM (inconclusive).

In the case of `O=C(CC(=O)N/N=C\c1c(Cl)cccc1Cl)NCc1ccccc1`, the AC50 (Cytochrome P450 3A4) is reported as 12.6 µM (inconclusive) and the AC50 (Cytochrome P450 1A2) is reported as 14.1 µM (inconclusive).

For `CCn1c(=O)[nH]c2ccccc21`, the AC50 (Cytochrome P450 1A2) was 31.6 µM (inconclusive).

With `CCCCCCCCCCCCCCSCC(=O)O` [TETRADECYLTHIOACETIC ACID] the AC50 (Cytochrome P450 2C9) was 39.8 µM (inconclusive).

Source: ChEMBL document CHEMBL1201862, “PubChem BioAssay data set” (2004)
